According to US9809542B2, “Spiroheterocyclically substituted tetramic acid derivatives” (BAYER INTELLECTUAL PROPERTY GMBH, priority 2010, dated 2017):

How the values were obtained:
Assay type in all cases: in vivo
[1] = system: green peach aphid (Myzus persicae); test: Myzus test (MYZUPE spray treatment); conditions: application rate 500 g/ha, Chinese cabbage leaf discs, after 6 days
Method: Myzus Test (MYZUPE Spray Treatment)
Solvents: 78 parts by weight of acetone
(§1) • 1.5 parts by weight of dimethylformamide Emulsifier: 0.5 part by weight of alkylaryl polyglycol ether
To produce a suitable preparation of active compound, 1 part by weight of active compound is mixed with the stated amounts of solvents and emulsifier, and the concentrate is diluted with emulsifier-containing water to the desired concentration. Discs of Chinese cabbage (Brassica pekinensis) which are infested by all stages of the green peach aphid (Myzus persicae) are sprayed with an active compound preparation of the desired concentration. After 6 days, the effect in % is determined. 100% means that all aphids have been killed; 0% means that none of the aphids have been killed.

[2] = system: caterpillars of the armyworm (Spodoptera frugiperda); test: Spodoptera frugiperda test (SPODFR spray treatment); conditions: application rate 500 g/ha, maize leaf discs, after 7 days
Method: Spodoptera frugiperda Test (SPODFR Spray Treatment)
(§2) Solvents: 78.0 parts by weight of acetone
as §1
To produce a suitable preparation of active compound, 1 part by weight of active compound is mixed with the stated amounts of solvents and emulsifier, and the concentrate is diluted with emulsifier-containing water to the desired concentration. Discs of maize leaves (Zea mays) are sprayed with an active compound preparation of the desired concentration and, after drying, populated with caterpillars of the armyworm (Spodoptera frugiperda).
After 7 days, the effect in % is determined. 100% means that all caterpillars have been killed; 0% means that none of the caterpillars have been killed.

[3] = system: larva of the mustard beetle (Phaedon cochleariae); test: Phaedon test (PHAECO spray treatment); conditions: Chinese cabbage leaf discs, after 7 days
Method: Phaedon Test ([…] Spray Treatment) Solvents: 78.0 parts by weight of acetone • • 1.5 parts by weight of dimethylformamide Emulsifier: 0.5 part by weight of alkylaryl polyglycol ether To produce a suitable preparation of active compound, one part by weight of active compound is mixed with the stated amounts of solvents and emulsifier, and the concentrate is diluted with emulsifier-containing water to the desired concentration. Discs of Chinese cabbage (Brassica pekinensis) are sprayed with an active compound preparation of the desired concentration and, after drying, populated with larva of the mustard beetle (Phaedon cochleariae).

Echinocloa crus-galli [4] = test: Herbicidal post-emergence action; conditions: post-emergence method, 80 g/ha; about 3 weeks
Text: (§3) • Seeds of monocotyledonous and dicotyledonous weed and crop plants are placed in sandy loam in wood fibre pots and covered with soil. The test compounds, formulated in the form of wettable powders (WP), are then, as aqueous suspension with a water application rate of 600 l/ha (converted), with 0.2% of wetting agent added, applied to the surface of the covering soil in various dosages. • After the treatment, the pots are placed in a greenhouse and kept under good growth conditions for the test plants. The visual assessment of the emergence damage on the test plants is carried out after a trial period of about 3 weeks by comparison with untreated controls (herbicidal effect in %: 100% effect=the plants have died, 0% effect=like control plants). • In addition to the compounds mentioned above, the following compounds, applied by the pre-emergence method at 320 g of a.i./ha, show an efficacy of 90% against Lolium multiflorum and Setaria viridis: I-1-a-1 • In addition to the compounds mentioned above, the following compounds, applied by the pre-emergence method at 320 g of a.i./ha, show an efficacy of 100% against Echinocloa crus-galli: I-a-2, I-b-1, I-b-2, I-c-2 2. Herbicidal Post-Emergence Action • Seeds of monocotyledonous and dicotyledonous weed and crop plants are placed in sandy loam in wood fibre pots, covered with soil and cultivated in a greenhouse under good growth conditions. 2-3 weeks after sowing, the test plants are treated at the one-leaf stage. The test compounds, formulated as wettable powders (WP), are, in various dosages at a water application rate of 600 l/ha (converted), with 0.2% of wetting agent added, sprayed onto the green parts of the plants. After the test plants have been kept in the greenhouse under optimum growth conditions for about 3 weeks, the effect of the preparations is rated visually in comparison to untreated controls (herbicidal effect in %: 100% effect=the plants have died, 0% effect=like control plants). • In addition to the compounds mentioned above, the following compounds, applied by the post-emergence method at 80 g/ha, show an efficacy of 90% against Echinocloa crus-galli and Lolium multiflorum: I-a-3, I-a-4, I-a-5.

Lolium multiflorum = test: Herbicidal post-emergence action; conditions: post-emergence method, 80 g/ha; about 3 weeks
Text: as §3

[5] = system: greenhouse red spidermite (Tetranychus urticae); test: Tetranychus test OP-resistant (TETRUR spray treatment); conditions: application rate 100 g/ha, bean leaf discs, after 6 days
Method: Tetranychus Test OP-Resistant (TETRUR Spray Treatment)
as §2, §1
To produce a suitable preparation of active compound, 1 part by weight of active compound is mixed with the stated amounts of solvents and emulsifier, and the concentrate is diluted with emulsifier-containing water to the desired concentration. Discs of bean leaves (Phaseolus vulgaris) which are infested by all stages of the greenhouse red spidermite (Tetranychus urticae) are sprayed with an active compound preparation of the desired concentration.
After 6 days, the effect in % is determined. 100% means that all spidermites have been killed; 0% means that none of the spidermites have been killed.

Echinocloa crus-galli [6] = test: Herbicidal pre-emergence action; conditions: pre-emergence method, 320 g of a.i./ha; about 3 weeks
Text: 1. Herbicidal Pre-Emergence Action
as §3

Lucilia cuprina larva = test: Lucilia cuprina test (LUCICU); conditions: application rate 100 ppm; treated horse meat; after 2 days
Method: Lucilia cuprina Test (LUCICU)
Solvent: Dimethyl sulphoxide
To produce a suitable preparation of active compound, 10 mg of active compound are mixed with 0.5 ml of dimethyl sulphoxide and the concentrate is diluted with water to the desired concentration. Containers containing horse meat treated with the active compound preparation of the desired concentration are populated with about 20 Lucilia cuprina larva.
After 2 days, the kill in % is determined. 100% means that all larva have been killed; 0% means that none of the larva have been killed.

| SMILES | efficacy (effect in %, aphids killed) [1] [%] | efficacy (effect in %, caterpillars killed) [2] [%] | efficacy (effect in %, spidermites killed) [5] [%] | other results |
| --- | --- | --- | --- | --- |
| CCON1CCC2(CC1)NC(=O)C(c1cc(-c3ccc(F)cc3)ccc1Cl)=C2O [I-a-3] | 100 | 83 | 90 | efficacy (effect in %, beetle larva killed) ([3]; application rate 500 g/ha): 100%; efficacy (herbicidal effect in %) (Echinocloa crus-galli [4]): 90%; efficacy (herbicidal effect in %) (Lolium multiflorum): 90% |
| CON1CCC2(CC1)NC(=O)C(c1cc(-c3ccc(F)cc3)ccc1Cl)=C2O [I-a-4] | 100 | 83 | 100 | efficacy (herbicidal effect in %) (Echinocloa crus-galli [4]): 90%; efficacy (herbicidal effect in %) (Lolium multiflorum): 90% |
| CON1CCC2(CC1)NC(=O)C(c1cc(-c3ccc(F)cc3)ccc1C)=C2O [I-a-5] | 100 | 100 | 90 | efficacy (herbicidal effect in %) (Echinocloa crus-galli [4]): 90%; efficacy (herbicidal effect in %) (Lolium multiflorum): 90% |
| CCON1CCC2(CC1)NC(=O)C(c1cc(-c3ccc(F)cc3)ccc1C)=C2O [I-a-6] | 100 | 100 | 90 | efficacy (effect in %, beetle larva killed) ([3]; application rate 100 g/ha): 100% |
| CCON1CCC2(CC1)NC(=O)C(c1c(OC)ccc(-c3ccc(F)cc3)c1Cl)=C2O [I-a-7] | 100 | – | 90 | – |
| CCc1ccc(-c2ccc(F)cc2)c(C)c1C1=C(O)C2(CCN(OC)CC2)NC1=O [I-a-8] | 90 | – | 90 | efficacy (effect in %, beetle larva killed) ([3]; application rate 500 g/ha): 100% |
| CCON1CCC2(CC1)NC(=O)C(c1c(CC)ccc(-c3ccc(F)cc3)c1C)=C2O [I-a-9] | 90 | – | 90 | efficacy (effect in %, beetle larva killed) ([3]; application rate 500 g/ha): 100% |
| COc1ccc(-c2ccc(F)cc2)c(Cl)c1C1=C(O)C2(CCN(OC)CC2)NC1=O [I-a-10] | 100 | – | 90 | – |
| CCON1CCC2(CC1)NC(=O)C(c1c(C)ccc(-c3ccc(F)c(F)c3)c1C)=C2O [I-a-11] | 100 | – | 100 | – |
| CCON1CCC2(CC1)NC(=O)C(c1c(C)ccc(-c3ccc(F)c(Cl)c3)c1C)=C2O [I-a-12] | 100 | 83 | 100 | – |
| CON1CCC2(CC1)NC(=O)C(c1c(C)ccc(-c3ccc(F)c(F)c3)c1C)=C2O [I-a-13] | 100 | – | 100 | – |
| CCON1CCC2(CC1)NC(=O)C(c1c(C)ccc(-c3ccc(Cl)c(F)c3)c1C)=C2O [I-a-14] | 100 | 100 | 90 | – |
| CON1CCC2(CC1)NC(=O)C(c1c(C)ccc(-c3ccc(Cl)c(F)c3)c1C)=C2O [I-a-15] | 100 | 100 | 100 | – |
| CON1CCC2(CC1)NC(=O)C(c1c(C)ccc(-c3ccc(F)cc3)c1C)=C2OC(=O)C(C)C [I-b-1] | 100 | 100 | – | efficacy (herbicidal effect in %) (Echinocloa crus-galli [6]): 100% |
| CCON1CCC2(CC1)NC(=O)C(c1c(C)ccc(-c3ccc(F)cc3)c1C)=C2OC(=O)C(C)C [I-b-2] | 100 | 100 | – | efficacy (herbicidal effect in %) (Echinocloa crus-galli [6]): 100% |
| CCOC(=O)OC1=C(c2c(C)ccc(-c3ccc(F)cc3)c2C)C(=O)NC12CCN(OC)CC2 [I-c-1] | 100 | 100 | – | – |
| CCOC(=O)OC1=C(c2c(C)ccc(-c3ccc(F)cc3)c2C)C(=O)NC12CCN(OCC)CC2 [I-c-2] | 100 | 100 | – | efficacy (herbicidal effect in %) (Echinocloa crus-galli [6]): 100%; efficacy (kill in %) (Lucilia cuprina larva): 80% |
| CCOC(=O)OC1=C(c2c(OC)ccc(-c3ccc(F)cc3)c2Cl)C(=O)NC12CCN(OC)CC2 [I-c-3] | – | – | 90 | – |
